Data on seven compounds can be found in patent US7968724B2, “Ester derivatives as phosphodiesterase inhibitors” (Chiesi Farmaceutici S.p.A., priority 2007, dated 2011).

The test system of assay [1] is LPS-induced TNF-α release in peripheral blood mononuclear cells (PBMCs). The assay is described as follows: PDE4 inhibitory activity in the PBMCs assay (LPS-induced TNF-α release). The assay is classed as cell-based. The conditions noted are these: PBMC; human PBMCs, LPS 3 ng/ml, 18 hours; read-out: IC50 in the PBMCs assay (50% inhibition of LPS-induced TNF-α release). On the procedure: The assay, which is based on the known inhibitory activity exerted by PDE4 inhibitors on the lipopolyshaccarides (LPS)-induced tumour necrosis factor-alpha (TNF-α release in peripheral blood mononuclear cells (PBMCs), is performed according to a method previously described (Hatzelmann A et al., J. Pharmacol. Exp. Ther., 2001; 297:267-279; and Draheim R et al., J. Pharmacol. Exp. Ther., 2004; 308:555-563. Cryopreserved human PBMCs, (100 μl/well) are incubated in 96-well plates (10^5 cells/well), for 30 minutes, in the presence or absence (50 microl) of the test compounds whose concentrations ranged from 10^−12 M to 10^−6 M. Subsequently, LPS (3 ng/ml) is added. After 18 hours of incubation at 37° C. in a humidified incubator under an atmosphere of 95% air and 5% CO2, culture medium is collected and TNF-α measured by ELISA.
The results are expressed as mean±95% confidence limits of the molar concentration of the test compound producing 50% inhibition of LPS-induced TNF-α release (IC50). […] The effects of the tested compounds are calculated as percentage of inhibition of TNF-α release, assuming LPS-induced TNF-α production in the absence of inhibitor compound as 100% and basal TNF-α production of PBMCs in the absence of LPS as 0%.

Assay [2] concerns LPDE4. The assay is described as follows: Ability to inhibit low affinity LPDE4 (cAMP disappearance) versus competing for high affinity HPDE4 ([H3]rolipram binding). The class given is biochemical. An excerpt: Advantageously the compounds of the invention are characterized by a selectivity toward LPDE4 higher than that toward HPDE4 as obtained by the determination of their IC50. In the case of LPDE4, the IC50 is the molar concentration of the test compound producing 50% inhibition of cAMP disappearance, assessed as described in Cortijo J et al., Br. J. Pharmacol., 1993, 108: 562-568, while in the case of HPDE4, the IC50 is the molar concentration of the test compound producing 50% inhibition of the binding of [H^3] rolipram, assessed as described in Duplantier A J et al., J. Med. Chem., 1996; 39: 120-125. Preferably the HPDE4/LPDE IC50 ratio for the compounds of the invention is higher than 10, more preferably higher than 100, even more preferably higher than 300.
The affinity toward LPDE4 and HPDE4 is assessed as previously described respectively in Cortijo J et al., Br. J. Pharmacol., 1993, 108: 562-568 and Duplantier A J et al., J. Med. Chem., 1996; 39: 120-125. The activity of compounds 1, 2, 4, 5, 6, and 7 is evaluated.

Assay [3] deals with LPDE4. The note with it: literature, Giembycz et al. 2001; cited from earlier work.
The subject of assay [4] is HPDE4. The conditions noted are these: literature, Giembycz et al. 2001; cited from earlier work.

For orientation: IC50 means the point on the concentration scale where inhibition reaches its midpoint. `COc1ccc(C(=Cc2c(Cl)c[n+]([O-])cc2Cl)OC(=O)c2ccccc2)c2c1oc1ccccc12` [Compound 7, Benzoic acid 2-(3,5-dichloro-1-oxy-pyridin-4-yl)-1-(4-methoxy-dibenzofuran-1-yl)-vinyl ester]: in assay [1], the IC50 lay within 1 to 150 nM. Also, the “inhibition of LPDE4 (affinity)” value in assay [2] is listed as “nanomolar affinity”.
`COc1ccc(C(=Cc2c(Cl)cncc2Cl)OC(=O)c2ccccc2)c2c1oc1ccc(NS(C)(=O)=O)cc12` [Compound 5, Benzoic acid 2-(3,5-dichloro-pyridin-4-yl)-1-(8-methanesulfonylamino-4-methoxy-dibenzofuran-1-yl)-vinyl ester]: the IC50 in assay [1] fell in the range of 1 to 150 nM. Further, the “inhibition of LPDE4 (affinity)” value in assay [2] is on record as “nanomolar affinity”.
For `COc1ccc(C(=Cc2c(Cl)c[n+]([O-])cc2Cl)OC(=O)c2ccccc2)c2c1oc1ccc([N+](=O)[O-])cc12` [Compound 6, Benzoic acid 2-(3,5-dichloro-1-oxy-pyridin-4-yl)-1-(4-methoxy-8-nitro-dibenzofuran-1-yl)-vinyl ester], the “inhibition of LPDE4 (affinity)” value in assay [2] is recorded as “nanomolar affinity”.
As to `COc1ccc(C(=Cc2c(Cl)cncc2Cl)OC(=O)c2ccccc2)c2c1oc1ccccc12` [Compound 2, Benzoic acid 2-(3,5-dichloro-pyridin-4-yl)-1-(4-methoxy-dibenzofuran-1-yl)-vinyl ester], the IC50 in assay [1] is 1 to 150 nM. For the same compound, the “inhibition of LPDE4 (affinity)” value in assay [2] is on record as “nanomolar affinity”.
As for `COc1ccc([C@]2(C#N)CC[C@@H](C(=O)O)CC2)cc1OC1CCCC1` [cilomilast], in assay [3], the HPDE4/LPDE4 ratio result was “about 1.3” and the IC50 is 90 nM. Further, the IC50 in assay [4] is 120 nM.
Regarding `COc1ccc(C(=Cc2c(Cl)cncc2Cl)OC(=O)c2ccccc2)c2c1oc1ccc([N+](=O)[O-])cc12` [Compound 1, Benzoic acid 2-(3,5-dichloro-pyridin-4-yl)-1-(4-methoxy-8-nitro-dibenzofuran-1-yl)-vinyl ester], the IC50 in assay [1] lay within 1 to 150 nM. The “inhibition of LPDE4 (affinity)” value in assay [2] was “nanomolar affinity”.
On to `COc1ccc(C(=Cc2c(Cl)cncc2Cl)OC(=O)c2ccccc2)c2c1oc1ccc(N)cc12` [Compound 4, Benzoic acid 2-(3,5-dichloro-pyridin-4-yl)-1-(4-methoxy-8-amino-dibenzofuran-1-yl)-vinyl ester], for which, in assay [1], the IC50 lay within 1 to 150 nM. In addition, the “inhibition of LPDE4 (affinity)” value in assay [2] is recorded as “nanomolar affinity”.
